Assays:
[1] = Turbidity measurement (LCST/UCST-like behavior, Tt); type: physicochemical; conditions: for Tt for the LCST-like behavior: Tt = temperature at half the maximum turbidity, mean ± standard error, at least three measurements; for Temperature-responsive behavior in turbidity measurement: heating to 90 °C and cooling to 5 °C at 1 °C/min, turbidity at 400 nm
Protocol: Temperature-responsive properties (LCST/UCST-like behavior and its reversibility) were investigated by using a JASCO V-660 spectral photometer (JASCO, Tokyo, Japan). Each peptide was dissolved in phosphate buffer containing NaCl (pH 7.4, 27.4 mM Na2HPO4, 17.8 mM NaH2PO4, 1 M NaCl). NaCl in this concentration is used as an additive to trigger an LCST-like behavior for the inverse transition cycling (a method to purify a protein exploiting the LCST-like behavior of ELPs).[9] The turbidity at 400 nm of each branched ELP solution was traced while increasing or decreasing the temperature at a rate of 0.5 °C/min, except for samples at 0.5 mM, which were traced at 1 °C/min for heating–cooling cycle measurements. For the samples at 0.5 mM, after heating to 90 °C or cooling to 5 °C, the samples were vortexed to eliminate any possible concentration gradients caused by peptide precipitation and kept at 90 or 5 °C for 30 min before starting the subsequent cooling or heating, respectively. The transition temperature (Tt) for LCST was defined as a temperature at which the turbidity of the solution reaches half the maximum value while increasing the temperature. Measurements were performed at least three times.

[2] = CD measurement (aggregation observed in sample); type: physicochemical; conditions: 0.1 mg/mL in filtered phosphate buffer pH 7.4 without NaCl; 10 to 90 °C
Protocol: CD measurements were carried out using a J-725 spectropolarimeter (JASCO) for [α-E(F1)]5-F1 and [γ-E(F1)]5-F1 in a cuvette with a path length of 1.0 mm. Each peptide was dissolved in filtered phosphate buffer (pH 7.4, 27.4 mM Na2HPO4, and 17.8 mM NaH2PO4) at a concentration of 0.1 mg/mL. […] Spectra were obtained from 190 to 260 nm at temperatures ranging from 10 to 90 °C with 20 °C intervals. Each measurement was performed after 3 min of equilibration at the target temperature. After subtracting the background spectra, Savitzky–Golay filters were applied to smooth all spectra.

[3] = DLS measurement of particle size distribution; type: physicochemical; conditions: peptide 0.5 mM, filtered phosphate buffer pH 7.4 with 1 M NaCl
Protocol: The particle size distribution of branched ELPs was analyzed in filtered phosphate buffer (pH 7.4, 27.4 mM Na2HPO4, 17.8 mM NaH2PO4) containing 1 M NaCl using DLS with a Zetasizer Nano ZS (Malvern Instruments, Worcestershire, U.K.) DLS analysis was performed at temperatures ranging from 15 to 55 °C with 10 °C intervals for [α-E(F1)]n-F1 and [γ-E(F1)]n-F1 under conditions where the ELPs have Tt values around 30 °C for LCST-like behavior (n = 4, 2.5 mM; n = 5, 1 mM; n = 6, 0.5 mM). Additionally, a solution of [α-E(F1)]5-F1 at 0.5 mM was analyzed at 20, 60, and 90 °C. The measurement duration was selected automatically. The parameter data set “protein” (data set: refractive index, 1.450; absorption, 0.001) was used as the material parameter, and the parameter data set “water” (data set: refractive index, 1.330; viscosity, 0.8872) was chosen as the dispersant parameter. Attenuation was selected automatically.

ThT fluorescence assay = type: physicochemical; conditions: peptide 1 mM; 50 μM ThT; phosphate buffer pH 7.4 with 1 M NaCl; excitation 446 nm, emission 483 nm
Protocol: A ThT fluorescence assay was conducted using an FP-8500 fluorescence spectrometer (JASCO Co.). The phosphate buffer solutions (pH 7.4, 27.4 mM Na2HPO4, 17.8 mM NaH2PO4) of [α-E(F1)]5-F1 (1 or 0.5 mM) containing 1 M NaCl and 50 μM ThT were prepared. The temperature change rates were the same as those in the turbidity measurements. Using an excitation wavelength of 446 nm, the ThT fluorescence intensities at 483 nm upon temperature changes or over time were recorded.

[4] = monomeric pentapeptide; cited from earlier work
Excerpt: Short ELPs with a (VPGVG)n sequence ...

[5] = peptide 1.5 mM, turbidity at 400 nm on heating 0.5 °C/min, phosphate buffer pH 7.4 with 1 M NaCl
[6] = peptide 2.5 mM, turbidity at 400 nm on heating 0.5 °C/min, phosphate buffer pH 7.4 with 1 M NaCl
[7] = peptide 4 mM, turbidity at 400 nm on heating 0.5 °C/min, phosphate buffer pH 7.4 (27.4 mM Na2HPO4, 17.8 mM NaH2PO4) with 1 M NaCl
[8] = peptide 0.5 mM, phosphate buffer pH 7.4 with 1 M NaCl
[9] = peptide 0.5 mM, turbidity at 400 nm on heating (1 °C/min for heating-cooling cycle measurements), phosphate buffer pH 7.4 with 1 M NaCl
[10] = peptide 1 mM, turbidity at 400 nm on heating 0.5 °C/min, phosphate buffer pH 7.4 with 1 M NaCl

Molecule	Tt for the LCST-like behavior [1, 6]	Tt for the LCST-like behavior [1, 9]	Tt for the LCST-like behavior [1, 10]	also measured
CC(C)[C@H](NC(=O)CNC(=O)[C@@H]1CCCN1C(=O)[C@H](Cc1ccccc1)NC(=O)CC[C@H](NC(=O)[C@H](CCC(=O)N[C@@H](Cc1ccccc1)C(=O)N1CCC[C@H]1C(=O)NCC(=O)N[C@H](C(=O)NCC(N)=O)C(C)C)NC(=O)[C@@H](N)CCC(=O)N[C@@H](Cc1ccccc1)C(=O)N1CCC[C@H]1C(=O)NCC(=O)N[C@H](C(=O)NCC(N)=O)C(C)C)C(=O)N[C@@H](CCC(=O)N[C@@H](Cc1ccccc1)C(=O)N1CCC[C@H]1C(=O)NCC(=O)N[C@H](C(=O)NCC(N)=O)C(C)C)C(=O)N[C@@H](Cc1ccccc1)C(=O)N1CCC[C@H]1C(=O)NCC(=O)N[C@H](C(=O)NCC(N)=O)C(C)C)C(=O)NCC(N)=O [[α-E(F1)]4-F1]	29.98 ± 1.82 °C	–	–	Tt for the LCST-like behavior [1, 5]: 47.04 ± 0.81 °C; Tt for the LCST-like behavior [1, 7]: 21.12 ± 1.68 °C
CC(C)[C@H](NC(=O)CNC(=O)[C@@H]1CCCN1C(=O)[C@H](Cc1ccccc1)NC(=O)CC[C@H](NC(=O)[C@H](CCC(=O)N[C@@H](Cc1ccccc1)C(=O)N1CCC[C@H]1C(=O)NCC(=O)N[C@H](C(=O)NCC(N)=O)C(C)C)NC(=O)[C@H](CCC(=O)N[C@@H](Cc1ccccc1)C(=O)N1CCC[C@H]1C(=O)NCC(=O)N[C@H](C(=O)NCC(N)=O)C(C)C)NC(=O)[C@@H](N)CCC(=O)N[C@@H](Cc1ccccc1)C(=O)N1CCC[C@H]1C(=O)NCC(=O)N[C@H](C(=O)NCC(N)=O)C(C)C)C(=O)N[C@@H](CCC(=O)N[C@@H](Cc1ccccc1)C(=O)N1CCC[C@H]1C(=O)NCC(=O)N[C@H](C(=O)NCC(N)=O)C(C)C)C(=O)N[C@@H](Cc1ccccc1)C(=O)N1CCC[C@H]1C(=O)NCC(=O)N[C@H](C(=O)NCC(N)=O)C(C)C)C(=O)NCC(N)=O [[α-E(F1)]5-F1]	13.86 ± 0.33 °C	56.92 ± 1.28 °C	–	Temperature-responsive behavior in turbidity measurement [1, 8]: both LCST- and UCST-like behavior; Solubility at 90 °C ([1]; peptide 1 mM and 2.5 mM at 90 °C, phosphate buffer pH 7.4 with 1 M NaCl, images of measurement cell): insoluble; Aggregation behavior in CD sample [2]: apparent aggregation behavior was not observed; Hydrodynamic diameter at 20, 60 and 90 °C [3]: larger hydrodynamic diameters at 60 °C compared to the ones at 20 or 90 °C; ThT fluorescence intensity upon heating (ThT fluorescence assay): sharp increase in fluorescence intensity around Tt
CC(C)[C@H](NC(=O)CNC(=O)[C@@H]1CCCN1C(=O)[C@H](Cc1ccccc1)NC(=O)CC[C@H](NC(=O)[C@H](CCC(=O)N[C@@H](Cc1ccccc1)C(=O)N1CCC[C@H]1C(=O)NCC(=O)N[C@H](C(=O)NCC(N)=O)C(C)C)NC(=O)[C@H](CCC(=O)N[C@@H](Cc1ccccc1)C(=O)N1CCC[C@H]1C(=O)NCC(=O)N[C@H](C(=O)NCC(N)=O)C(C)C)NC(=O)[C@@H](N)CCC(=O)N[C@@H](Cc1ccccc1)C(=O)N1CCC[C@H]1C(=O)NCC(=O)N[C@H](C(=O)NCC(N)=O)C(C)C)C(=O)N[C@@H](CCC(=O)N[C@@H](Cc1ccccc1)C(=O)N1CCC[C@H]1C(=O)NCC(=O)N[C@H](C(=O)NCC(N)=O)C(C)C)C(=O)N[C@@H](CCC(=O)N[C@@H](Cc1ccccc1)C(=O)N1CCC[C@H]1C(=O)NCC(=O)N[C@H](C(=O)NCC(N)=O)C(C)C)C(=O)N[C@@H](Cc1ccccc1)C(=O)N1CCC[C@H]1C(=O)NCC(=O)N[C@H](C(=O)NCC(N)=O)C(C)C)C(=O)NCC(N)=O [[α-E(F1)]6-F1]	7.68 ± 0.80 °C	33.80 ± 0.38 °C	19.76 ± 0.97 °C	–
CC(C)[C@H](NC(=O)CNC(=O)[C@@H]1CCCN1C(=O)[C@H](Cc1ccccc1)NC(=O)CC[C@H](NC(=O)CC[C@H](NC(=O)CC[C@H](NC(=O)CC[C@H](N)C(=O)N[C@@H](Cc1ccccc1)C(=O)N1CCC[C@H]1C(=O)NCC(=O)N[C@H](C(=O)NCC(N)=O)C(C)C)C(=O)N[C@@H](Cc1ccccc1)C(=O)N1CCC[C@H]1C(=O)NCC(=O)N[C@H](C(=O)NCC(N)=O)C(C)C)C(=O)N[C@@H](Cc1ccccc1)C(=O)N1CCC[C@H]1C(=O)NCC(=O)N[C@H](C(=O)NCC(N)=O)C(C)C)C(=O)N[C@@H](Cc1ccccc1)C(=O)N1CCC[C@H]1C(=O)NCC(=O)N[C@H](C(=O)NCC(N)=O)C(C)C)C(=O)NCC(N)=O [[γ-E(F1)]4-F1]	30.25 ± 0.23 °C	–	–	Tt for the LCST-like behavior [1, 5]: 46.52 ± 0.67 °C; Tt for the LCST-like behavior [1, 7]: 20.75 ± 0.47 °C
CC(C)[C@H](NC(=O)CNC(=O)[C@@H]1CCCN1C(=O)[C@H](Cc1ccccc1)NC(=O)CC[C@H](NC(=O)CC[C@H](NC(=O)CC[C@H](NC(=O)CC[C@H](NC(=O)CC[C@H](N)C(=O)N[C@@H](Cc1ccccc1)C(=O)N1CCC[C@H]1C(=O)NCC(=O)N[C@H](C(=O)NCC(N)=O)C(C)C)C(=O)N[C@@H](Cc1ccccc1)C(=O)N1CCC[C@H]1C(=O)NCC(=O)N[C@H](C(=O)NCC(N)=O)C(C)C)C(=O)N[C@@H](Cc1ccccc1)C(=O)N1CCC[C@H]1C(=O)NCC(=O)N[C@H](C(=O)NCC(N)=O)C(C)C)C(=O)N[C@@H](Cc1ccccc1)C(=O)N1CCC[C@H]1C(=O)NCC(=O)N[C@H](C(=O)NCC(N)=O)C(C)C)C(=O)N[C@@H](Cc1ccccc1)C(=O)N1CCC[C@H]1C(=O)NCC(=O)N[C@H](C(=O)NCC(N)=O)C(C)C)C(=O)NCC(N)=O [[γ-E(F1)]5-F1]	17.38 ± 0.10 °C	61.87 ± 0.60 °C	34.73 ± 0.52 °C	Temperature-responsive behavior in turbidity measurement [1, 8]: both LCST- and UCST-like behavior; Aggregation behavior in CD sample [2]: apparent aggregation behavior was not observed
CC(C)[C@H](NC(=O)CNC(=O)[C@@H]1CCCN1C(=O)[C@H](Cc1ccccc1)NC(=O)CC[C@H](NC(=O)CC[C@H](NC(=O)CC[C@H](NC(=O)CC[C@H](NC(=O)CC[C@H](NC(=O)CC[C@H](N)C(=O)N[C@@H](Cc1ccccc1)C(=O)N1CCC[C@H]1C(=O)NCC(=O)N[C@H](C(=O)NCC(N)=O)C(C)C)C(=O)N[C@@H](Cc1ccccc1)C(=O)N1CCC[C@H]1C(=O)NCC(=O)N[C@H](C(=O)NCC(N)=O)C(C)C)C(=O)N[C@@H](Cc1ccccc1)C(=O)N1CCC[C@H]1C(=O)NCC(=O)N[C@H](C(=O)NCC(N)=O)C(C)C)C(=O)N[C@@H](Cc1ccccc1)C(=O)N1CCC[C@H]1C(=O)NCC(=O)N[C@H](C(=O)NCC(N)=O)C(C)C)C(=O)N[C@@H](Cc1ccccc1)C(=O)N1CCC[C@H]1C(=O)NCC(=O)N[C@H](C(=O)NCC(N)=O)C(C)C)C(=O)N[C@@H](Cc1ccccc1)C(=O)N1CCC[C@H]1C(=O)NCC(=O)N[C@H](C(=O)NCC(N)=O)C(C)C)C(=O)NCC(N)=O [[γ-E(F1)]6-F1]	8.63 ± 0.31 °C	34.56 ± 0.48 °C	23.66 ± 0.06 °C	–
H-FPGVG-NH2 [F1, monomeric elastin-like pentapeptide Phe-Pro-Gly-Val-Gly amide]	–	–	–	Coacervation (LCST-like behavior) [4]: did not show coacervation
